Experimental data reported in patent US20220175761A1, “BI-LIGAND DRUG CONJUGATE AND USE THEREOF” (COHERENT BIOPHARMA (SUZHOU), LIMITED, priority 2019, published 2022).

How the values were obtained:
[1] = tested on: CFPAC-1 (human pancreatic cancer cells); assay: Inhibition of cell line proliferation, CCK8; assay type: cell-based; conditions: CFPAC-1, 68-72 hours, CCK8
Description: Experimental operations: PANC-1 and CFPAC-1 cells were prepared in advance, counted, and plated in 96-well cell culture plates at a cell density of 4×10^4 cells/ml (100 μl/well); negative control and blank control wells were set on each plate. After adherent cell culture overnight, the diluted samples to be tested were added at 50 μl/well. The plates were placed in an incubator at 37° C., 5% CO2 and cultured for 68-72 hours. To each well, 15 μl (10% of the liquid volume in a well) of a color developing solution from CCK8 was added; and the plates were incubated at 37° C. for 45-70 minutes and each plate was read at 450 nm on a microplate reader. The data was edited using SoftMax Pro and a 4-P fitting curve was plotted.
(§1) Experimental operations: LNCaP, SK-BR-3, NCI-H226, CFPAC-1 and PANC-1 cells were prepared in advance and counted; with a culture medium (IMDM+10% FBS+1× L-Glutamine+1×P/S), the cells LNCaP, SK-BR-3 and CFPAC-1 were diluted to 4×10^4 cells/ml, NCI-H226 was diluted to 2.0×10^4 cells/ml and PANC-1 was diluted to 3.0×10^4 cells/ml; the diluted cell solution was plated in 96-well plates at 100 μl/well; and negative control and blank control wells were set on each plate. After adherent cell culture overnight, the diluted samples to be tested were added at 50 μl/well. The plates were placed in an incubator at 37° C., 5% CO2 and cultured for 68-72 hours. To each well, 15 μl (10% of the liquid volume in a well) of a color developing solution from CCK8 was added; and the plates were incubated at 37° C. for 45-70 minutes and each plate was read at 450 nm on a microplate reader. The data was edited using SoftMax Pro and a 4-P fitting curve was plotted.
(§2) Experimental Operations: LNCaP, SK-BR-3, MDA-MB-468 and CFPAC-1 cells were prepared in advance and counted; with a culture medium (IMDM+10% FBS+1× L-Glutamine+1×P/S), the cells LNCaP, SK-BR-3, MDA-MB-468 and CFPAC-1 were diluted to 4×10^4 cells/ml; the diluted cell solution was plated in 96-well plates at 100 µl/well; and negative control and blank control wells were set on each plate. After adherent cell culture overnight, the diluted samples to be tested were added at 50 μl/well. The plates were placed in an incubator at 37° C., 5% CO2 and cultured for 68-72 hours. To each well, 15 μl (10% of the liquid volume in a well) of a color developing solution from CCK8 was added; and the plates were incubated at 37° C. for 45-70 minutes and each plate was read at 450 nm on a microplate reader. The data was edited using SoftMax Pro and a 4-P fitting curve was plotted.
as §2, with “Operations: LNCaP, MDA-MB-468, CFPAC-1 and PANC-1” for “Operations: LNCaP, SK-BR-3, MDA-MB-468 and CFPAC-1”, “CFPAC-1 and PANC-1 cells were” for “MDA-MB-468 and CFPAC-1 cells were”, “cells LNCaP, MDA-MB-468 and” for “cells LNCaP, SK-BR-3, MDA-MB-468 and”, “to 4×10^4 cells/ml, and PANC-1 was diluted to 3.0×10^4 cells/ml; the” for “to 4×10^4 cells/ml; the”, “at 100 μl/well; and negative” for “at 100 µl/well; and negative”
Experimental operations: NCI-H226, CFPAC-1 and MDA-MB-468 cells were prepared in advance and counted; MDA-MB-468 and CFPAC-1 cells were plated at a density of 2×10^4 cells/ml (100 μl/well) and NCI-H226 cells were plated at a density of 1×10^4 cells/ml (100 μl/well) in 96-well plates; and negative control and blank control wells were set on each plate. After adherent cell culture overnight, the diluted samples to be tested were added at 50 μl/well. The plates were placed in an incubator at 37° C., 5% CO2 and cultured for 68-72 hours. […]

[2] = tested on: NCI-H226 (human lung cancer cells); assay: Inhibition of cell line proliferation, CCK8; assay type: cell-based; conditions: NCI-H226, 68-72 hours, CCK8
Description: as §1
(§3) Experimental operations: NCI-H226, CFPAC-1 and MDA-MB-468 cells were prepared in advance and counted; MDA-MB-468 and CFPAC-1 cells were plated at a density of 2×10^4 cells/ml (100 μl/well) and NCI-H226 cells were plated at a density of 1×10^4 cells/ml (100 μl/well) in 96-well plates; and negative control and blank control wells were set on each plate. After adherent cell culture overnight, the diluted samples to be tested were added at 50 μl/well. The plates were placed in an incubator at 37° C., 5% CO2 and cultured for 68-72 hours. To each well, 15 μl (10% of the liquid volume in a well) of a color developing solution from CCK8 was added; and the plates were incubated at 37° C. for 45-70 minutes and each plate was read at 450 nm on a microplate reader. The data was edited using SoftMax Pro and a 4-P fitting curve was plotted.

[3] = tested on: MDA-MB-468 (human breast cancer cells); assay: Inhibition of cell line proliferation, CCK8; assay type: cell-based; conditions: MDA-MB-468, 68-72 hours, CCK8
Description: as §2
as §2, with “Operations: LNCaP, MDA-MB-468, CFPAC-1 and PANC-1” for “Operations: LNCaP, SK-BR-3, MDA-MB-468 and CFPAC-1”, “CFPAC-1 and PANC-1 cells were” for “MDA-MB-468 and CFPAC-1 cells were”, “cells LNCaP, MDA-MB-468 and” for “cells LNCaP, SK-BR-3, MDA-MB-468 and”, “to 4×10^4 cells/ml, and PANC-1 was diluted to 3.0×10^4 cells/ml; the” for “to 4×10^4 cells/ml; the”, “at 100 μl/well; and negative” for “at 100 µl/well; and negative”
as §3

CALU-3 = assay: Tumor growth inhibition of CR19428 in subcutaneous xenograft model (CDX); assay type: in vivo, BALB/c-nude mice
Description: (§4) Experimental scheme: The tumor tissue mass were prepared and subcutaneously inoculated into the anterior right flank of BALB/c-nude mice. When the tumor volume expanded to 80-160 mm^3, a randomized grouping was performed, and a model control group and administration groups were set. The mice were administrated from the first day of grouping, wherein the administration dose was adjusted according to the latest weight measurement. The mice were administrated via tail vein injection at an administration volume of 10 μl/g and twice a week for consecutive 3 weeks. After grouping and administration, the effects of tumor growth and treatment on normal behaviors of animals, specifically including the activity of experimental animals, food intake and drinking status, weight gain or loss status, and other abnormal conditions in eyes, hair, etc., were monitored. After grouping and administration, the weight of mice was measured twice a week to calculate the rate of weight change; at the same time, the long diameter and short diameter of the tumor were measured with a vernier caliper, and the tumor volume, relative tumor proliferation rate, tumor volume inhibition rate and other indicators were calculated. The formula of tumor volume is TV=0.5 a×b^2, wherein a is the long diameter of a tumor and b is the short diameter of a tumor.

SCLC-21H = assay: as above; assay type: in vivo, BALB/c-nude mice
Description: as §4

SPC-A1 = assay: as above; assay type: in vivo, BALB/c-nude mice; conditions: for TGI: SPC-Al
Description: as §4

[4] = tested on: LNCaP human prostate cancer cells; assay: Cell binding and endocytosis by flow cytometry; assay type: cell-based; conditions: 8 nmol/L, 37° C., 15-90 minutes, compared with DU145 and NCI-H460
Description: (§5) Sample information: Cy5-pep-20AK and Cy5-pep-20BK Cell lines: LNCaP human prostate cancer cells, Du145 human prostate cancer cells, SKOV3 human ovarian cancer cells and NCI-H460 human lung cancer cells
(§6) (1) Cell culture: the cells were digested with trypsin, collected and counted, and then the cells were added to several culture flasks containing a complete medium; the culture flasks were placed in an incubator at 37° C., 5% CO2 for culturing the cells, and finally about 5×10^6 cells were collected into a centrifuge tube. […]
(§7) (3) Washing and loading: the working solution was removed by centrifugation at 1000 rpm for 5 minutes, and the cells were washed 3 times with PBS, and an appropriate amount of PBS was added to suspend the cells to 1×10^6 cells/ml; Beckman CytoFLEX flow cytometer was turned on in advance to complete the startup cleaning process; and the cell samples were loaded successively, and the fluorescence of 10,000 living cells was read in the APC channel; all operations were performed avoiding light exposure.
(§8) (4) Data analysis: the absolute MFI (mean fluorescence intensity) of the APC fluorescence of each cell sample and the relative MFI of the relative blank control were obtained, and a data line graph was completed according to the relative MFI.

[5] = tested on: SKOV3 human ovarian cancer cells; assay: Cell binding and endocytosis by flow cytometry; assay type: cell-based; conditions: 8 nmol/L, 37° C., 15-90 minutes, compared with DU145 and NCI-H460
Description: as §5, §6, §7, §8

SMILES | IC50 [1] | IC50 [2] | IC50 [3] | TGI (CALU-3; CALU-3, 50 mg/kg q2/w * 3) | anti-tumor growth effect (in words) (CALU-3; CALU-3 CDX) | anti-tumor growth effect (in words) (SCLC-21H; SCLC-21H CDX) | TGI (SCLC-21H; SCLC-21H, 50 mg/kg q2/w * 3) | anti-tumor growth effect (in words) (SPC-A1; SPC-A1 CDX) | TGI (SPC-A1; 50 mg/kg q2/w * 3) | TGI (SPC-A1; 100 mg/kg q2/w * 3) | binding and endocytosis (fluorescence intensity) [4] | binding and endocytosis (fluorescence intensity) [5]
CC[C@@]1(O)C(=O)OCc2c1cc1n(c2=O)Cc2c-1nc1cc(F)c(C)c3c1c2[C@@H](NC(=O)COCNC(=O)CNC(=O)[C@H](Cc1ccccc1)NC(=O)CNC(=O)CNC(=O)CCCCCN1C(=O)CC(SC[C@H](NC(=O)[C@H](CCCCN)NC(=O)[C@H](CC(=O)O)NC(=O)[C@H](CC(=O)O)NC(=O)Cc2ccc(CNC(=O)NCCCC[C@H](NC(=O)N[C@@H](CCC(=O)O)C(=O)O)C(=O)O)cc2)C(=O)N[C@@H](CCCCNC(=O)CC[C@H](NC(=O)c2ccc(NCc4cnc5[nH]c(N)nc(=O)c5n4)cc2)C(=O)O)C(N)=O)C1=O)CC3 (stereo partly drawn) [CR19428] | 906 nM | 1620 nM | 1070 nM | 51% | obvious anti-tumor growth effect | obvious anti-tumor growth effect | 66% | obvious anti-tumor growth effect | 75% | 91% | – | –
CC1(C)C(/C=C/C=C/C=C2\N(CCCCCC(=O)NCCCCC(NC(=O)[C@H](CCCCN)NC(=O)[C@H](CC(=O)O)NC(=O)[C@H](CC(=O)O)NC(=O)Cc3ccc(CNC(=O)NCCCC[C@H](NC(=O)N[C@@H](CCC(=O)O)C(=O)O)C(=O)O)cc3)C(N)=O)c3ccc(S(=O)(=O)[O-])cc3C2(C)C)=[N+](CCCS(=O)(=O)O)c2ccc(S(=O)(=O)O)cc21 (stereo partly drawn) [Cy5-pep-20AK] | – | – | – | – | – | – | – | – | – | – | high level of binding and endocytosis | moderate level of binding and endocytosis
